Structures are written as SMILES. pIC50: −log10 of the molar value. Starred links: 1 amine or outer side, 2 acyl side, 3 side chain; linkers in the order of their positions; H or OH if unused. Positions of bridges follow the written chain, without caps; N, C: chain ends. Non-standard residues stand in square brackets, D forms with d. Residues, ends and D or L forms follow the SMILES beside them. Groups on a side chain read outwards from the residue. *: point of attachment. Trp(1-CH2COOH) = N[C@@H](Cc1cn(CC(=O)O)c2ccccc12)C(=O)O; NH(benzothiophen-5-yl) = c1cc2cc(N*)ccc2s1; Benzofuran(2-CO) = O=C(c1cc2ccccc2o1)*; X8 = NC(=O)c1c[nH]c2c(NC(=S)*)cccc12; NH(1-naphthyl) = c1ccc2c(N*)cccc2c1; X31 = S=C(Nc1cccc2c(Cl)c[nH]c12)*; Hyp = O=C(O)[C@@H]1C[C@@H](O)CN1; NMeNle = CCCC[C@H](NC)C(=O)O; X12 = S=C(Nc1ccc2ccccc2c1)*; X20 = O=C(Oc1ccc2ccccc2c1)*; X5 = S=C(Nc1cccc2ccccc12)*; X52 = c1ccc2c(N*)c[nH]c2c1; X59 = S=C(Nc1ccc2nsnc2c1)*; NMeA = CN[C@@H](C)C(=O)O; Dab = NCC[C@H](N)C(=O)O; X45 = c1ccc2sc(N*)cc2c1; Dap = NC[C@H](N)C(=O)O; CO = O=C([*:1])[*:2]

One assay deals with T1, PD-1/PD-L1 (Homo sapiens, UniProt Q9NZQ7).
T1 construct: TVMV protease site linker (C); made in house; host or cells: HEK293T cells
T1 sequence (Q9NZQ7 18-239): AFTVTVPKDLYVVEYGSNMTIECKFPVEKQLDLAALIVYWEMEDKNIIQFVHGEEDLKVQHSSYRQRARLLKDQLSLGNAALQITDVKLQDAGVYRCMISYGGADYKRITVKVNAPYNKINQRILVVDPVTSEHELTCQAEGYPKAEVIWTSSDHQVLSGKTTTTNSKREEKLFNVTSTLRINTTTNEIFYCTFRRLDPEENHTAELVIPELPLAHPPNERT
The assay is described as follows: PD-1/PD-L1 Homogenous Time-Resolved Fluorescence (HTRF) binding assay.
Conditions: not given
An outline of the steps: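 Compounds preincubated 15 min with PD-L1-His (10 nM final), then PD-1-Ig (20 nM final) added for 15 min in dPBS with 0.1% BSA, 0.05% Tween-20. Detection by Eu-cryptate anti-Ig (1 nM) and APC anti-His (20 nM) HTRF.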
On the technique in general: Time-resolved FRET reads energy transfer from a long-lived donor to a nearby acceptor.
In general, pIC50 refers to the negative decadic logarithm of the IC50, by convention in mol/L. Regarding `CCCC[C@H]1C(=O)N(C)[C@@H](CCCC)C(=O)N[C@@H](CC(C)C)C(=O)N[C@H](C(=O)NCC(N)=O)CSCC(=O)N[C@@H](Cc2ccc(O)cc2)C(=O)N(C)[C@@H](C)C(=O)N[C@@H](CC(N)=O)C(=O)N2CCC[C@H]2C(=O)N[C@@H](CNC(=O)Oc2ccc3ccccc3c2)C(=O)N[C@@H](CC(C)C)C(=O)N2C[C@H](O)C[C@H]2C(=O)N[C@@H](Cc2c[nH]c3ccccc23)C(=O)N[C@@H](CCNC(=O)Oc2ccc3ccccc3c2)C(=O)N[C@@H](Cc2cn(CC(=O)O)c3ccccc23)C(=O)N1C` [Example 3037] ({CH2CO}-Y[NMeA]NP[Dap](X20)L[Hyp]W[Dab](X20)[Trp(1-CH2COOH)][NMeNle][NMeNle]LCG-NH2; thioether N-14), the pIC50 is 8.30. Still for that read-out and setting: as for `CCCC[C@H]1C(=O)N(C)[C@@H](CCCC)C(=O)N[C@@H](CC(C)C)C(=O)N[C@H](C(=O)NCC(N)=O)CSCC(=O)N[C@@H](Cc2ccc(O)cc2)C(=O)N(C)[C@@H](C)C(=O)N[C@@H](CC(N)=O)C(=O)N2CCC[C@H]2C(=O)N[C@@H](CNC(=O)Nc2cccc3ccccc23)C(=O)N[C@@H](CC(C)C)C(=O)N2C[C@H](O)C[C@H]2C(=O)N[C@@H](Cc2c[nH]c3ccccc23)C(=O)N[C@@H](CCN)C(=O)N[C@@H](Cc2cn(CC(=O)O)c3ccccc23)C(=O)N1C` [Example 3040] ({CH2CO}-Y[NMeA]NP[Dap]([CO-NH(1-naphthyl)])L[Hyp]W[Dab][Trp(1-CH2COOH)][NMeNle][NMeNle]LCG-NH2; thioether N-14), the figure is 9.10.

The assay is the same for the next values; noted with them: PD-L1-His 10 nM pre-incubated with inhibitor, PD-1-Ig 20 nM; read-out: HTRF IC50.
Turning to `CCCC[C@H]1C(=O)N(C)[C@@H](CCCC)C(=O)N[C@@H](CC(C)C)C(=O)N[C@H](C(=O)NCC(N)=O)CSCC(=O)N[C@@H](Cc2ccc(O)cc2)C(=O)N(C)[C@@H](C)C(=O)N[C@@H](CC(N)=O)C(=O)N2CCC[C@H]2C(=O)N[C@@H](CN)C(=O)N[C@@H](CC(C)C)C(=O)N2C[C@H](O)C[C@H]2C(=O)N[C@@H](Cc2c[nH]c3ccccc23)C(=O)N[C@@H](CCNC(=S)Nc2cccc3c(C(N)=O)c[nH]c23)C(=O)N[C@@H](Cc2cn(CC(=O)O)c3ccccc23)C(=O)N1C` [Example 3027] ({CH2CO}-Y[NMeA]NP[Dap]L[Hyp]W[Dab](X8)[Trp(1-CH2COOH)][NMeNle][NMeNle]LCG-NH2; thioether N-14), the negative-log IC50 (pIC50) is 8.41.

Regarding `CCCC[C@H]1C(=O)N(C)[C@@H](CCCC)C(=O)N[C@@H](CC(C)C)C(=O)N[C@H](C(=O)NCC(N)=O)CSCC(=O)N[C@@H](Cc2ccc(O)cc2)C(=O)N(C)[C@@H](C)C(=O)N[C@@H](CC(N)=O)C(=O)N2CCC[C@H]2C(=O)N[C@@H](CNC(=S)Nc2ccc3ccccc3c2)C(=O)N[C@@H](CC(C)C)C(=O)N2C[C@H](O)C[C@H]2C(=O)N[C@@H](Cc2c[nH]c3ccccc23)C(=O)N[C@@H](CCN)C(=O)N[C@@H](Cc2cn(CC(=O)O)c3ccccc23)C(=O)N1C` [Example 3028] ({CH2CO}-Y[NMeA]NP[Dap](X12)L[Hyp]W[Dab][Trp(1-CH2COOH)][NMeNle][NMeNle]LCG-NH2; thioether N-14), the pIC50 was 9.22.

For `CCCC[C@H]1C(=O)N(C)[C@@H](CCCC)C(=O)N[C@@H](CC(C)C)C(=O)N[C@H](C(=O)NCC(N)=O)CSCC(=O)N[C@@H](Cc2ccc(O)cc2)C(=O)N(C)[C@@H](C)C(=O)N[C@@H](CC(N)=O)C(=O)N2CCC[C@H]2C(=O)N[C@@H](CN)C(=O)N[C@@H](CC(C)C)C(=O)N2C[C@H](O)C[C@H]2C(=O)N[C@@H](Cc2c[nH]c3ccccc23)C(=O)N[C@@H](CCNC(=S)Nc2cccc3ccccc23)C(=O)N[C@@H](Cc2cn(CC(=O)O)c3ccccc23)C(=O)N1C` [Example 3029] ({CH2CO}-Y[NMeA]NP[Dap]L[Hyp]W[Dab](X5)[Trp(1-CH2COOH)][NMeNle][NMeNle]LCG-NH2; thioether N-14), the pIC50 was 10.00.

On to `CCCC[C@H]1C(=O)N(C)[C@@H](CCCC)C(=O)N[C@@H](CC(C)C)C(=O)N[C@H](C(=O)NCC(N)=O)CSCC(=O)N[C@@H](Cc2ccc(O)cc2)C(=O)N(C)[C@@H](C)C(=O)N[C@@H](CC(N)=O)C(=O)N2CCC[C@H]2C(=O)N[C@@H](CNC(=S)Nc2ccc3nsnc3c2)C(=O)N[C@@H](CC(C)C)C(=O)N2C[C@H](O)C[C@H]2C(=O)N[C@@H](Cc2c[nH]c3ccccc23)C(=O)N[C@@H](CCN)C(=O)N[C@@H](Cc2cn(CC(=O)O)c3ccccc23)C(=O)N1C` [Example 3030] ({CH2CO}-Y[NMeA]NP[Dap](X59)L[Hyp]W[Dab][Trp(1-CH2COOH)][NMeNle][NMeNle]LCG-NH2; thioether N-14), for which the negative-log IC50 (pIC50) is 8.52. Still for that read-out and setting: as for `CCCC[C@H]1C(=O)N(C)[C@@H](CCCC)C(=O)N[C@@H](CC(C)C)C(=O)N[C@H](C(=O)NCC(N)=O)CSCC(=O)N[C@@H](Cc2ccc(O)cc2)C(=O)N(C)[C@@H](C)C(=O)N[C@@H](CC(N)=O)C(=O)N2CCC[C@H]2C(=O)N[C@@H](CN)C(=O)N[C@@H](CC(C)C)C(=O)N2C[C@H](O)C[C@H]2C(=O)N[C@@H](Cc2c[nH]c3ccccc23)C(=O)N[C@@H](CCNC(=S)Nc2cccc3c(Cl)c[nH]c23)C(=O)N[C@@H](Cc2cn(CC(=O)O)c3ccccc23)C(=O)N1C` [Example 3031] ({CH2CO}-Y[NMeA]NP[Dap]L[Hyp]W[Dab](X31)[Trp(1-CH2COOH)][NMeNle][NMeNle]LCG-NH2; thioether N-14), the figure is 8.51; as for `CCCC[C@H]1C(=O)N(C)[C@@H](CCCC)C(=O)N[C@@H](CC(C)C)C(=O)N[C@H](C(=O)NCC(N)=O)CSCC(=O)N[C@@H](Cc2ccc(O)cc2)C(=O)N(C)[C@@H](C)C(=O)N[C@@H](CC(N)=O)C(=O)N2CCC[C@H]2C(=O)N[C@@H](CNC(=O)Nc2cc3ccccc3s2)C(=O)N[C@@H](CC(C)C)C(=O)N2C[C@H](O)C[C@H]2C(=O)N[C@@H](Cc2c[nH]c3ccccc23)C(=O)N[C@@H](CCN)C(=O)N[C@@H](Cc2cn(CC(=O)O)c3ccccc23)C(=O)N1C` [Example 3032] ({CH2CO}-Y[NMeA]NP[Dap]([CO-X45])L[Hyp]W[Dab][Trp(1-CH2COOH)][NMeNle][NMeNle]LCG-NH2; thioether N-14), 8.04; as for `CCCC[C@H]1C(=O)N(C)[C@@H](CCCC)C(=O)N[C@@H](CC(C)C)C(=O)N[C@H](C(=O)NCC(N)=O)CSCC(=O)N[C@@H](Cc2ccc(O)cc2)C(=O)N(C)[C@@H](C)C(=O)N[C@@H](CC(N)=O)C(=O)N2CCC[C@H]2C(=O)N[C@@H](CNC(=S)Nc2cccc3ccccc23)C(=O)N[C@@H](CC(C)C)C(=O)N2C[C@H](O)C[C@H]2C(=O)N[C@@H](Cc2c[nH]c3ccccc23)C(=O)N[C@@H](CCNC(=S)Nc2cccc3ccccc23)C(=O)N[C@@H](Cc2cn(CC(=O)O)c3ccccc23)C(=O)N1C` [Example 3033] ({CH2CO}-Y[NMeA]NP[Dap](X5)L[Hyp]W[Dab](X5)[Trp(1-CH2COOH)][NMeNle][NMeNle]LCG-NH2; thioether N-14), 8.82. On the same count and under the same terms, as for `CCCC[C@H]1C(=O)N(C)[C@@H](CCCC)C(=O)N[C@@H](CC(C)C)C(=O)N[C@H](C(=O)NCC(N)=O)CSCC(=O)N[C@@H](Cc2ccc(O)cc2)C(=O)N(C)[C@@H](C)C(=O)N[C@@H](CC(N)=O)C(=O)N2CCC[C@H]2C(=O)N[C@@H](CNC(=O)c2cc3ccccc3o2)C(=O)N[C@@H](CC(C)C)C(=O)N2C[C@H](O)C[C@H]2C(=O)N[C@@H](Cc2c[nH]c3ccccc23)C(=O)N[C@@H](CCN)C(=O)N[C@@H](Cc2cn(CC(=O)O)c3ccccc23)C(=O)N1C` [Example 3034] ({CH2CO}-Y[NMeA]NP[Dap](Benzofuran(2-CO))L[Hyp]W[Dab][Trp(1-CH2COOH)][NMeNle][NMeNle]LCG-NH2; thioether N-14), the figure is 8.49; as for `CCCC[C@H]1C(=O)N(C)[C@@H](CCCC)C(=O)N[C@@H](CC(C)C)C(=O)N[C@H](C(=O)NCC(N)=O)CSCC(=O)N[C@@H](Cc2ccc(O)cc2)C(=O)N(C)[C@@H](C)C(=O)N[C@@H](CC(N)=O)C(=O)N2CCC[C@H]2C(=O)N[C@@H](CNC(=O)c2cc3ccccc3o2)C(=O)N[C@@H](CC(C)C)C(=O)N2C[C@H](O)C[C@H]2C(=O)N[C@@H](Cc2c[nH]c3ccccc23)C(=O)N[C@@H](CCNC(=O)c2cc3ccccc3o2)C(=O)N[C@@H](Cc2cn(CC(=O)O)c3ccccc23)C(=O)N1C` [Example 3036] ({CH2CO}-Y[NMeA]NP[Dap](Benzofuran(2-CO))L[Hyp]W[Dab](Benzofuran(2-CO))[Trp(1-CH2COOH)][NMeNle][NMeNle]LCG-NH2; thioether N-14), 8.57. The same measure, in the same setting: as for `CCCC[C@H]1C(=O)N(C)[C@@H](CCCC)C(=O)N[C@@H](CC(C)C)C(=O)N[C@H](C(=O)NCC(N)=O)CSCC(=O)N[C@@H](Cc2ccc(O)cc2)C(=O)N(C)[C@@H](C)C(=O)N[C@@H](CC(N)=O)C(=O)N2CCC[C@H]2C(=O)N[C@@H](CN)C(=O)N[C@@H](CC(C)C)C(=O)N2C[C@H](O)C[C@H]2C(=O)N[C@@H](Cc2c[nH]c3ccccc23)C(=O)N[C@@H](CCNC(=O)Nc2ccc3sccc3c2)C(=O)N[C@@H](Cc2cn(CC(=O)O)c3ccccc23)C(=O)N1C` [Example 3038] ({CH2CO}-Y[NMeA]NP[Dap]L[Hyp]W[Dab]([CO-NH(benzothiophen-5-yl)])[Trp(1-CH2COOH)][NMeNle][NMeNle]LCG-NH2; thioether N-14), the figure is 8.28; as for `CCCC[C@H]1C(=O)N(C)[C@@H](CCCC)C(=O)N[C@@H](CC(C)C)C(=O)N[C@H](C(=O)NCC(N)=O)CSCC(=O)N[C@@H](Cc2ccc(O)cc2)C(=O)N(C)[C@@H](C)C(=O)N[C@@H](CC(N)=O)C(=O)N2CCC[C@H]2C(=O)N[C@@H](CNC(=O)Nc2c[nH]c3ccccc23)C(=O)N[C@@H](CC(C)C)C(=O)N2C[C@H](O)C[C@H]2C(=O)N[C@@H](Cc2c[nH]c3ccccc23)C(=O)N[C@@H](CCN)C(=O)N[C@@H](Cc2cn(CC(=O)O)c3ccccc23)C(=O)N1C` [Example 3041] ({CH2CO}-Y[NMeA]NP[Dap]([CO-X52])L[Hyp]W[Dab][Trp(1-CH2COOH)][NMeNle][NMeNle]LCG-NH2; thioether N-14), 9.52.

The values are drawn from US20220389061A1, “IMMUNOMODULATORS” (priority 2019, published 2022).
